Values quoted from earlier work, collected in patent US20060046268A1, “Diagnosis of anemia and optimizing treatment for heart repair” (Australian Stem Cell Centre Ltd., priority 2004, published 2006).

System: renal transplant patients
Settings: reversed upon ceasing administration of the drug, Vlahakos et al., Am J Kidney Dis 17:199-205

## CCOC(=O)[C@H](CCc1ccccc1)N[C@@H](C)C(=O)N1CCC[C@H]1C(=O)O [Enalapril]
  anemia (impact on function of the hematopoietic system): reversible anemia
